Data published in patent US11707448B2, “Combination therapies for the treatment of cancer” (Eisai R&D Management Co., Ltd., priority 2014, dated 2023).
Where a name gives a salt, the structure may show the parent alone.

Tested on: PAN02 pancreatic tumors
Assay: PAN02 pancreatic tumor model, ER-886046 with gemcitabine and radiation
Format: in vivo, mice
Settings: gemcitabine single 40 mg/kg + RT single 6 Gy on day 27; first study (FIG. 10)
Description: FIG. 10. […] Antitumor activity of gemcitabine plus local radiation (RT) administered to PAN02 pancreatic tumors in C57BL/6 mice with or without ER-886046. Gemcitabine and RT dosing: a single 40 mg/kg dose of gemcitabine and a single 6 Gy dose of RT, was administered on day 27 post tumor cell injection. ER-8806046 was administered daily in an amount of 150 mg/kg from day 27 post tumor cell injection until the end of the study.
FIG. 11A to FIG. 11B. Additional experiments with combination therapy of ER-886046 and anti-metabolite chemotherapy with radiation compared to anti-metabolite chemotherapy with radiation alone. Panel shown in FIG. 11A) Gemcitabine and RT dosing: a single 40 mg/kg dose of gemcitabine and a single 6 Gy dose of RT, was administered on day 19 post tumor cell injection. ER-8806046 was administered daily in an amount of 150 mg/kg from day 19 post tumor cell injection until the end of the study. Panel shown in FIG. 11B) Gemcitabine and RT dosing: a single 40 mg/kg dose of gemcitabine and a single 6 Gy dose of RT, was administered on day 12 post tumor cell injection. ER-8806046 was administered daily in an amount of 150 mg/kg from day 12 post tumor cell injection until the end of the study. Average tumor sizes of mouse pancreatic PAN02 tumor-bearing mice that received vehicles, ER-886046, gemcitabine (gem) plus radiation (RT), ER-886046 plus RT, or ER-886046 plus gemcitabine and RT at indicated dosages and schedules. A and B represent each independent study. N=8-10 per group. NS, not significant; *, p<0.05; **, p<0.01; ***, p<0.001; and ****, p<0.0001, two-way ANOVA test.
Animal studies; In vitro cultured cancer cells were harvested and suspended in 100 μl of cold HBSS buffer at cell concentrations of 1.0×10^6 cells/ml (CT-26 cells) or of 1.0×10^7 cells/ml (PAN02 cells) and subcutaneously (sc) injected into the mice using a 26 g syringe on day 0. At the dates as indicated in the figures, the mice were randomized based on the tumor size followed by treatments with local radiation alone, gemcitabine alone (intravenous administration), ER-886046 alone (oral administration), or combinations of these treatments. […] The tumor sizes were measured twice a week by a digital caliber (Mitutoyo Corp), and the volume was calculated using the formula (1×w^2)/2=mm^3, where 1 and w refer to the larger and smaller perpendicular dimensions collected at each measurement. Graphs of group tumor sizes (mean±SEM) versus time were plotted using software GraphPad Prism 6 (Lake Forest, Calif.). Two way ANOVA was used for statistical calculation among the groups. N=8-10 in each treatment group.

Nc1ccn([C@@H]2O[C@H](CO)[C@@H](O)C2(F)F)c(=O)n1 [gemcitabine, Gemcitabine hydrochloride, reference compound]
tumor growth delay activity: weak but statistically significant tumor growth delay activity
